In ChEMBL document CHEMBL3885881, “DrugMatrix”:

Species on record: Rattus norvegicus
Assay: DrugMatrix - Regimen: Daily Repeat
Format: toxicity, organism-based, Sprague-Dawley
Set-up: regimen Daily Repeat, gender Male, age 6-8 weeks
Settings: in vivo, vehicle 100 % SALINE; for ABSOLUTE MONOCYTE / ABSOLUTE SEGMENTED NEUTROPHIL / BASOPHIL / EOSINOPHIL / ERYTHROCYTE COUNT / HEMATOCRIT / HEMOGLOBIN / LEUKOCYTE COUNT / LYMPHOCYTE / MEAN CORPUSCULAR HEMOGLOBIN / MEAN CORPUSCULAR HEMOGLOBIN CONCENTRATION / MEAN CORPUSCULAR VOLUME / MONOCYTE / NEUTROPHIL / PLATELET COUNT / ABSOLUTE BASOPHIL / ABSOLUTE EOSINOPHIL / ABSOLUTE LYMPHOCYTE: tissue Blood; for ALANINE AMINOTRANSFERASE / ALBUMIN / ALKALINE PHOSPHATASE / ASPARTATE AMINOTRANSFERASE / BLOOD UREA NITROGEN / CHLORIDE / CHOLESTEROL / CREATINE PHOSPHOKINASE / CREATININE / GLUCOSE / LACTATE DEHYDROGENASE / LIPASE / PHOSPHORUS / POTASSIUM / SODIUM / TOTAL BILIRUBIN / TOTAL PROTEIN / URIC ACID: tissue Plasma
[1] = ip, 160 mg/kg, 120 h, route intraperitoneal, dose level High, time 5 day
[2] = ip, 160 mg/kg, […], route intraperitoneal, dose level High, time 14 day
[3] = ip, 160 mg/kg, […], route intraperitoneal, dose level High, time 28 day
[4] = iv, 0 mg/kg, 72 h, dose level Control, time 3 day

Question: Which ABSOLUTE MONOCYTE [1] does the source give for `NCC[C@H](O)C(=O)N[C@@H]1C[C@H](N)[C@@H](O[C@H]2O[C@H](CN)[C@@H](O)[C@H](O)[C@H]2O)[C@H](O)[C@H]1O[C@H]1O[C@H](CO)[C@@H](O)[C@H](N)[C@H]1O` [AMIKACIN] here?
Answer: 130 cells/µL

Question: And the ABSOLUTE SEGMENTED NEUTROPHIL [1]?
Answer: 830 cells/µL

Question: What about the BASOPHIL [1] of the same compound?
Answer: 0.52%

Question: And the EOSINOPHIL [1]?
Answer: 0.92%

Question: What about the “ERYTHROCYTE COUNT” value [1] of the same compound?
Answer: 7.72 x10E6/uL

Question: And the HEMATOCRIT [1]?
Answer: 47.66%

Question: What about the HEMOGLOBIN [1] of the same compound?
Answer: 15.46 G/DL

Question: What about the “LEUKOCYTE COUNT” value [1] of the same compound?
Answer: 8.36 x10E3/uL

Question: And the LYMPHOCYTE [1]?
Answer: 86.2%

Question: What about the “MEAN CORPUSCULAR HEMOGLOBIN” value [1] of the same compound?
Answer: 20.02 pg

Question: What about the “MEAN CORPUSCULAR HEMOGLOBIN CONCENTRATION” value [1] of the same compound?
Answer: 32.44 G/DL

Question: What about the “MEAN CORPUSCULAR VOLUME” value [1] of the same compound?
Answer: 61.7 fL

Question: And the MONOCYTE [1]?
Answer: 1.62%

Question: And the NEUTROPHIL [1]?
Answer: 10.4%

Question: And the “PLATELET COUNT” value [1]?
Answer: 1365.6 x10E3/uL

Question: What about the “ALANINE AMINOTRANSFERASE” value [1] of the same compound?
Answer: 28.8 u/L

Question: And the ALBUMIN [1]?
Answer: 3.56 G/DL

Question: And the “ALKALINE PHOSPHATASE” value [1]?
Answer: 209.4 u/L

Question: And the “ASPARTATE AMINOTRANSFERASE” value [1]?
Answer: 80.6 u/L

Question: What about the “BLOOD UREA NITROGEN” value [1] of the same compound?
Answer: 14.6 mg/dL

Question: And the CHLORIDE [1]?
Answer: 107.2 MEQ/L

Question: And the CHOLESTEROL [1]?
Answer: 62.4 mg/dL

Question: And the “CREATINE PHOSPHOKINASE” value [1]?
Answer: 231.2 u/L

Question: What about the CREATININE [1] of the same compound?
Answer: 0.56 mg/dL

Question: And the GLUCOSE [1]?
Answer: 136.6 mg/dL

Question: What about the “LACTATE DEHYDROGENASE” value [1] of the same compound?
Answer: 109.8 u/L

Question: And the LIPASE [1]?
Answer: 23.8 u/L

Question: And the PHOSPHORUS [1]?
Answer: 11.74 mg/dL

Question: And the POTASSIUM [1]?
Answer: 5.46 MEQ/L

Question: What about the SODIUM [1] of the same compound?
Answer: 147 MEQ/L

Question: What about the “TOTAL BILIRUBIN” value [1] of the same compound?
Answer: 0.22 mg/dL

Question: And the “TOTAL PROTEIN” value [1]?
Answer: 6.1 G/DL

Question: What about the “URIC ACID” value [1] of the same compound?
Answer: 1.12 mg/dL

Question: What about the ABSOLUTE BASOPHIL [2] of the same compound?
Answer: 120 cells/µL

Question: And the ABSOLUTE EOSINOPHIL [2]?
Answer: 120 cells/µL

Question: And the ABSOLUTE LYMPHOCYTE [2]?
Answer: 10400 cells/µL

Question: What about the ABSOLUTE MONOCYTE [2] of the same compound?
Answer: 290 cells/µL

Question: And the ABSOLUTE SEGMENTED NEUTROPHIL [2]?
Answer: 1840 cells/µL

Question: What about the BASOPHIL [2] of the same compound?
Answer: 0.88%

Question: And the EOSINOPHIL [2]?
Answer: 0.88%

Question: And the “ERYTHROCYTE COUNT” value [2]?
Answer: 7.68 x10E6/uL

Question: What about the HEMATOCRIT [2] of the same compound?
Answer: 45.32%

Question: What about the HEMOGLOBIN [2] of the same compound?
Answer: 14.88 G/DL

Question: And the “LEUKOCYTE COUNT” value [2]?
Answer: 12.88 x10E3/uL

Question: And the LYMPHOCYTE [2]?
Answer: 80.34%

Question: And the “MEAN CORPUSCULAR HEMOGLOBIN” value [2]?
Answer: 19.4 pg

Question: And the “MEAN CORPUSCULAR HEMOGLOBIN CONCENTRATION” value [2]?
Answer: 32.88 G/DL

Question: What about the “MEAN CORPUSCULAR VOLUME” value [2] of the same compound?
Answer: 59.02 fL

Question: And the MONOCYTE [2]?
Answer: 2.26%

Question: And the NEUTROPHIL [2]?
Answer: 15.14%

Question: And the “PLATELET COUNT” value [2]?
Answer: 1513.4 x10E3/uL

Question: And the ABSOLUTE BASOPHIL [3]?
Answer: 97 cells/µL

Question: What about the ABSOLUTE EOSINOPHIL [3] of the same compound?
Answer: 87 cells/µL

Question: What about the ABSOLUTE LYMPHOCYTE [3] of the same compound?
Answer: 9100 cells/µL

Question: And the ABSOLUTE MONOCYTE [3]?
Answer: 180 cells/µL

Question: And the ABSOLUTE SEGMENTED NEUTROPHIL [3]?
Answer: 1340 cells/µL

Question: And the BASOPHIL [3]?
Answer: 0.88%

Question: What about the EOSINOPHIL [3] of the same compound?
Answer: 0.84%

Question: And the “ERYTHROCYTE COUNT” value [3]?
Answer: 7.95 x10E6/uL

Question: And the HEMATOCRIT [3]?
Answer: 44.83%

Question: What about the HEMOGLOBIN [3] of the same compound?
Answer: 14.88 G/DL

Question: What about the “LEUKOCYTE COUNT” value [3] of the same compound?
Answer: 10.86 x10E3/uL

Question: What about the LYMPHOCYTE [3] of the same compound?
Answer: 83.57%

Question: What about the “MEAN CORPUSCULAR HEMOGLOBIN” value [3] of the same compound?
Answer: 18.72 pg

Question: And the “MEAN CORPUSCULAR HEMOGLOBIN CONCENTRATION” value [3]?
Answer: 33.24 G/DL

Question: And the “MEAN CORPUSCULAR VOLUME” value [3]?
Answer: 56.35 fL

Question: And the MONOCYTE [3]?
Answer: 1.64%

Question: And the NEUTROPHIL [3]?
Answer: 12.66%

Question: What about the “PLATELET COUNT” value [3] of the same compound?
Answer: 1439.3 x10E3/uL

Question: And the “ALANINE AMINOTRANSFERASE” value [2]?
Answer: 30.4 u/L

Question: And the ALBUMIN [2]?
Answer: 3.44 G/DL

Question: And the “ALKALINE PHOSPHATASE” value [2]?
Answer: 190.6 u/L

Question: And the “ASPARTATE AMINOTRANSFERASE” value [2]?
Answer: 79.6 u/L

Question: What about the “BLOOD UREA NITROGEN” value [2] of the same compound?
Answer: 13 mg/dL

Question: And the CHLORIDE [2]?
Answer: 107.8 MEQ/L

Question: What about the CHOLESTEROL [2] of the same compound?
Answer: 70.8 mg/dL

Question: What about the “CREATINE PHOSPHOKINASE” value [2] of the same compound?
Answer: 151.2 u/L

Question: And the CREATININE [2]?
Answer: 0.5 mg/dL

Question: And the GLUCOSE [2]?
Answer: 119.8 mg/dL

Question: What about the “LACTATE DEHYDROGENASE” value [2] of the same compound?
Answer: 78.6 u/L

Question: And the LIPASE [2]?
Answer: 32 u/L

Question: And the PHOSPHORUS [2]?
Answer: 9.94 mg/dL

Question: And the POTASSIUM [2]?
Answer: 5.62 MEQ/L

Question: And the SODIUM [2]?
Answer: 150.6 MEQ/L

Question: What about the “TOTAL BILIRUBIN” value [2] of the same compound?
Answer: 0.2 mg/dL

Question: What about the “TOTAL PROTEIN” value [2] of the same compound?
Answer: 6.18 G/DL

Question: And the “URIC ACID” value [2]?
Answer: 0.66 mg/dL

Question: What about the “ALANINE AMINOTRANSFERASE” value [3] of the same compound?
Answer: 29.6 u/L

Question: And the ALBUMIN [3]?
Answer: 3.6 G/DL

Question: What about the “ALKALINE PHOSPHATASE” value [3] of the same compound?
Answer: 128.89 u/L

Question: And the “ASPARTATE AMINOTRANSFERASE” value [3]?
Answer: 84.7 u/L

Question: And the “BLOOD UREA NITROGEN” value [3]?
Answer: 17.7 mg/dL

Question: And the CHLORIDE [3]?
Answer: 105.6 MEQ/L

Question: What about the CHOLESTEROL [3] of the same compound?
Answer: 62.1 mg/dL

Question: And the “CREATINE PHOSPHOKINASE” value [3]?
Answer: 292.2 u/L

Question: What about the CREATININE [3] of the same compound?
Answer: 0.65 mg/dL

Question: And the GLUCOSE [3]?
Answer: 136.2 mg/dL

Question: What about the “LACTATE DEHYDROGENASE” value [3] of the same compound?
Answer: 129.6 u/L

Question: What about the LIPASE [3] of the same compound?
Answer: 17.1 u/L

Question: And the PHOSPHORUS [3]?
Answer: 10.04 mg/dL

Question: And the POTASSIUM [3]?
Answer: 6.81 MEQ/L

Question: What about the SODIUM [3] of the same compound?
Answer: 152.5 MEQ/L

Question: What about the “TOTAL BILIRUBIN” value [3] of the same compound?
Answer: 0.26 mg/dL

Question: What about the “TOTAL PROTEIN” value [3] of the same compound?
Answer: 6.48 G/DL

Question: What about the “URIC ACID” value [3] of the same compound?
Answer: 1.45 mg/dL

Question: What about the “ABSOLUTE BASOPHIL” value [4] of the same compound?
Answer: 0 CELLS/uL

Question: And the “ABSOLUTE EOSINOPHIL” value [4]?
Answer: 0 CELLS/uL

Question: What about the “ABSOLUTE LYMPHOCYTE” value [4] of the same compound?
Answer: 7637.67 CELLS/uL

Question: And the “ABSOLUTE MONOCYTE” value [4]?
Answer: 67.83 CELLS/uL

Question: What about the “ABSOLUTE SEGMENTED NEUTROPHIL” value [4] of the same compound?
Answer: 661.17 CELLS/uL

Question: And the BASOPHIL [4]?
Answer: 0%
